Species on record: Rattus norvegicus
Experiment: DrugMatrix - Regimen: Daily Repeat
Assay type: toxicity, organism-based, Sprague-Dawley
Parameters: regimen Daily Repeat, gender Male, age 6-8 weeks
Details: in vivo, po, route oral GAVAGE, vehicle .5 % CMC; for BASOPHIL / EOSINOPHIL / ERYTHROCYTE COUNT / HEMATOCRIT / HEMOGLOBIN / LEUKOCYTE COUNT / LYMPHOCYTE / MEAN CORPUSCULAR HEMOGLOBIN / MEAN CORPUSCULAR HEMOGLOBIN CONCENTRATION / MEAN CORPUSCULAR VOLUME / MONOCYTE / NEUTROPHIL / PLATELET COUNT: tissue Blood; for ALANINE AMINOTRANSFERASE / ALBUMIN / ALKALINE PHOSPHATASE / ASPARTATE AMINOTRANSFERASE / BLOOD UREA NITROGEN / CHLORIDE / CHOLESTEROL / CREATINE PHOSPHOKINASE / CREATININE / GLUCOSE / PHOSPHORUS / POTASSIUM / SODIUM / TOTAL BILIRUBIN / TOTAL PROTEIN: tissue Plasma
[1] = 0 mg/kg, 72 h, dose level Control, time 3 day
[2] = 0 mg/kg, 120 h, dose level Control, time 5 day
[3] = 0.09 mg/kg, 72 h, dose level Low, time 3 day

Question: `CCN1C[C@]2(COC)[C@H](O)C[C@H](OC)[C@@]34[C@@H]5C[C@@]6(O)[C@H](OC(=O)c7ccccc7)[C@@H]5[C@@](OC(C)=O)([C@@H]([C@H](OC)[C@H]23)[C@@H]14)[C@@H](O)[C@@H]6OC` [ACONITINE] was tested. Which BASOPHIL [1] did it give?
Answer: 0.68%

Question: What about the EOSINOPHIL [1] of the same compound?
Answer: 0.46%

Question: What about the “ERYTHROCYTE COUNT” value [1] of the same compound?
Answer: 7.15 x10E6/uL

Question: What about the HEMATOCRIT [1] of the same compound?
Answer: 45.44%

Question: And the HEMOGLOBIN [1]?
Answer: 14.1 G/DL

Question: And the “LEUKOCYTE COUNT” value [1]?
Answer: 9.78 x10E3/uL

Question: And the LYMPHOCYTE [1]?
Answer: 84.44%

Question: And the “MEAN CORPUSCULAR HEMOGLOBIN” value [1]?
Answer: 19.72 pg

Question: And the “MEAN CORPUSCULAR HEMOGLOBIN CONCENTRATION” value [1]?
Answer: 31 G/DL

Question: And the “MEAN CORPUSCULAR VOLUME” value [1]?
Answer: 63.66 fL

Question: And the MONOCYTE [1]?
Answer: 2.14%

Question: What about the NEUTROPHIL [1] of the same compound?
Answer: 11.16%

Question: And the “PLATELET COUNT” value [1]?
Answer: 1378.2 x10E3/uL

Question: What about the “ALANINE AMINOTRANSFERASE” value [1] of the same compound?
Answer: 42.33 u/L

Question: What about the ALBUMIN [1] of the same compound?
Answer: 3.8 G/DL

Question: What about the “ALKALINE PHOSPHATASE” value [1] of the same compound?
Answer: 388.17 u/L

Question: What about the “ASPARTATE AMINOTRANSFERASE” value [1] of the same compound?
Answer: 68 u/L

Question: What about the “BLOOD UREA NITROGEN” value [1] of the same compound?
Answer: 16.17 mg/dL

Question: And the CHLORIDE [1]?
Answer: 96.67 MEQ/L

Question: What about the CHOLESTEROL [1] of the same compound?
Answer: 71 mg/dL

Question: What about the “CREATINE PHOSPHOKINASE” value [1] of the same compound?
Answer: 156.17 u/L

Question: And the CREATININE [1]?
Answer: 0.57 mg/dL

Question: And the GLUCOSE [1]?
Answer: 193.67 mg/dL

Question: And the PHOSPHORUS [1]?
Answer: 11.43 mg/dL

Question: And the POTASSIUM [1]?
Answer: 7 MEQ/L

Question: And the SODIUM [1]?
Answer: 140.33 MEQ/L

Question: And the “TOTAL BILIRUBIN” value [1]?
Answer: 0.48 mg/dL

Question: And the “TOTAL PROTEIN” value [1]?
Answer: 6.8 G/DL

Question: What about the BASOPHIL [2] of the same compound?
Answer: 1.47%

Question: What about the EOSINOPHIL [2] of the same compound?
Answer: 1%

Question: What about the “ERYTHROCYTE COUNT” value [2] of the same compound?
Answer: 7.12 x10E6/uL

Question: What about the HEMATOCRIT [2] of the same compound?
Answer: 45.47%

Question: And the HEMOGLOBIN [2]?
Answer: 14.1 G/DL

Question: And the “LEUKOCYTE COUNT” value [2]?
Answer: 11.38 x10E3/uL

Question: What about the LYMPHOCYTE [2] of the same compound?
Answer: 82.57%

Question: And the “MEAN CORPUSCULAR HEMOGLOBIN” value [2]?
Answer: 19.82 pg

Question: And the “MEAN CORPUSCULAR HEMOGLOBIN CONCENTRATION” value [2]?
Answer: 31.02 G/DL

Question: What about the “MEAN CORPUSCULAR VOLUME” value [2] of the same compound?
Answer: 63.88 fL

Question: What about the MONOCYTE [2] of the same compound?
Answer: 2.2%

Question: And the NEUTROPHIL [2]?
Answer: 11.97%

Question: And the “PLATELET COUNT” value [2]?
Answer: 1267 x10E3/uL

Question: And the “ALANINE AMINOTRANSFERASE” value [2]?
Answer: 38 u/L

Question: And the ALBUMIN [2]?
Answer: 3.72 G/DL

Question: And the “ALKALINE PHOSPHATASE” value [2]?
Answer: 391 u/L

Question: And the “ASPARTATE AMINOTRANSFERASE” value [2]?
Answer: 65.83 u/L

Question: And the “BLOOD UREA NITROGEN” value [2]?
Answer: 14.17 mg/dL

Question: What about the CHLORIDE [2] of the same compound?
Answer: 107.67 MEQ/L

Question: And the CHOLESTEROL [2]?
Answer: 61 mg/dL

Question: What about the “CREATINE PHOSPHOKINASE” value [2] of the same compound?
Answer: 148.33 u/L

Question: And the CREATININE [2]?
Answer: 0.57 mg/dL

Question: And the GLUCOSE [2]?
Answer: 177.17 mg/dL

Question: And the PHOSPHORUS [2]?
Answer: 12.07 mg/dL

Question: And the POTASSIUM [2]?
Answer: 7.2 MEQ/L

Question: What about the SODIUM [2] of the same compound?
Answer: 151.5 MEQ/L

Question: And the “TOTAL BILIRUBIN” value [2]?
Answer: 0.58 mg/dL

Question: What about the “TOTAL PROTEIN” value [2] of the same compound?
Answer: 6.72 G/DL

Question: What about the BASOPHIL [3] of the same compound?
Answer: 0.43%

Question: What about the EOSINOPHIL [3] of the same compound?
Answer: 0.4%

Question: What about the “ERYTHROCYTE COUNT” value [3] of the same compound?
Answer: 7.13 x10E6/uL

Question: And the HEMATOCRIT [3]?
Answer: 45.67%

Question: What about the HEMOGLOBIN [3] of the same compound?
Answer: 14.3 G/DL

Question: What about the “LEUKOCYTE COUNT” value [3] of the same compound?
Answer: 11.21 x10E3/uL

Question: And the LYMPHOCYTE [3]?
Answer: 84.83%

Question: And the “MEAN CORPUSCULAR HEMOGLOBIN” value [3]?
Answer: 20.07 pg

Question: What about the “MEAN CORPUSCULAR HEMOGLOBIN CONCENTRATION” value [3] of the same compound?
Answer: 31.3 G/DL

Question: What about the “MEAN CORPUSCULAR VOLUME” value [3] of the same compound?
Answer: 64.07 fL

Question: What about the MONOCYTE [3] of the same compound?
Answer: 2.23%

Question: What about the NEUTROPHIL [3] of the same compound?
Answer: 11.1%

Question: And the “PLATELET COUNT” value [3]?
Answer: 1445.33 x10E3/uL

Question: What about the “ALANINE AMINOTRANSFERASE” value [3] of the same compound?
Answer: 31.33 u/L

Question: What about the ALBUMIN [3] of the same compound?
Answer: 3.93 G/DL

Question: What about the “ALKALINE PHOSPHATASE” value [3] of the same compound?
Answer: 342 u/L

Question: What about the “ASPARTATE AMINOTRANSFERASE” value [3] of the same compound?
Answer: 61.33 u/L

Question: And the “BLOOD UREA NITROGEN” value [3]?
Answer: 14.33 mg/dL

Question: What about the CHLORIDE [3] of the same compound?
Answer: 96.67 MEQ/L

Question: And the CHOLESTEROL [3]?
Answer: 69.33 mg/dL

Question: What about the “CREATINE PHOSPHOKINASE” value [3] of the same compound?
Answer: 136.67 u/L

Question: And the CREATININE [3]?
Answer: 0.57 mg/dL

Question: What about the GLUCOSE [3] of the same compound?
Answer: 209 mg/dL

Question: And the PHOSPHORUS [3]?
Answer: 12.67 mg/dL

Question: What about the POTASSIUM [3] of the same compound?
Answer: 6.4 MEQ/L

Question: And the SODIUM [3]?
Answer: 140.67 MEQ/L

Question: What about the “TOTAL BILIRUBIN” value [3] of the same compound?
Answer: 0.4 mg/dL

Question: What about the “TOTAL PROTEIN” value [3] of the same compound?
Answer: 7.1 G/DL
